Source: ChEMBL document CHEMBL6153110, “Peptide Double-Stapling and Arginine N-Glycosylation Triggered the Development of Therapeutic Antimicrobial Peptides Capable of Killing Drug-Resistant Bacteria in Mice” (J Med Chem, 2025)
Values after ≈ are worked out from the molar mass of the structure shown. Starred links: 1 amine or outer side, 2 acyl side, 3 side chain; linkers in the order of their positions; H or OH if unused. Positions of bridges follow the written chain, without caps; N, C: chain ends. Non-standard residues stand in square brackets, D forms with d. Residues, ends and D or L forms follow the SMILES beside them. X1 = N=C(NCCC[C@H](N[*:1])C(=O)[*:2])N[C@@H]1O[C@H](CO)[C@@H](O[C@H]2O[C@H](CO)[C@@H](O[C@H]3O[C@H](CO)[C@@H](O)[C@H](O)[C@H]3O)[C@H](O)[C@H]2O)[C@H](O)[C@H]1O; R8 = C=CCCCCCC[C@@](C)(N)C(=O)O; S5 = C=CCCC[C@](C)(N)C(=O)O

How the values were obtained:
[1] = test system: Pseudomonas aeruginosa; assay: Antimicrobial activity against Pseudomonas aeruginosa ATCC 27853 assessed as growth inhibition measured after 8 hrs incubation by standard broth dilution assay; format: functional
[2] = test system: Klebsiella pneumoniae; assay: Antimicrobial activity against Klebsiella pneumoniae ATCC 13883 assessed as growth inhibition measured after 8 hrs incubation by standard broth dilution assay; format: functional
[3] = Hemolytic activity in BALB/c mouse red blood cells assessed as hemolysis incubated for 1 hrs; format: toxicity, cell-based, Erythrocyte; details: read-out: HD50
[4] = test system: Staphylococcus aureus; assay: Antimicrobial activity against methicillin-resistant Staphylococcus aureus ATCC 43300 assessed as growth inhibition measured after 8 hrs incubation by standard broth dilution assay; format: functional
[5] = test system: Streptococcus pneumoniae; assay: Antimicrobial activity against Streptococcus pneumoniae ATCC 49619 assessed as growth inhibition measured after 8 hrs incubation by standard broth dilution assay; format: functional

| SMILES | MIC [1] | MIC [2] | HC50 at 1 h [3] | MIC [4] | MIC [5] |
| --- | --- | --- | --- | --- | --- |
| CC(=O)N[C@@H](CCCCN)C(=O)N[C@@H](CCCCN)C(=O)N[C@@H](CCCNC(=N)N)C(=O)N[C@@H](CCCCN)C(=O)N[C@@H](Cc1c[nH]c2ccccc12)C(=O)N[C@@H](CCCCN)C(=O)N[C@@H](CCCNC(=N)N)C(=O)N[C@@]1(C)CCC/C=C\CCC[C@@](C)(C(=O)N[C@@H](CCCCN)C(=O)N[C@@]2(C)CCC/C=C\CCC[C@@](C)(C(=O)N[C@@H](CC(C)C)C(=O)N[C@@H](CCCCN)C(=O)N[C@@H](CCCCN)C(=O)N3CCC[C@H]3C(=O)N[C@H](C(=O)N[C@@H](CCCNC(=N)N)C(N)=O)C(C)C)NC(=O)[C@H](CCCNC(=N)N)NC(=O)[C@H](Cc3c[nH]c4ccccc34)NC(=O)[C@H](Cc3ccc(O)cc3)NC2=O)NC(=O)[C@H](CC(C)C)NC(=O)[C@H](CCCCN)NC(=O)[C@H](Cc2ccccc2)NC1=O (Ac-KKRKWKR[S5]FKL[S5]K[S5]YWR[S5]LKKPVR-NH2; staple (Z) 8-12, 14-18) | 2.6 µg/mL (≈ 0.784 µM) | 10.1 µg/mL (≈ 3.05 µM) | 26.5 µg/mL | 2.5 µg/mL (≈ 0.754 µM) | 2.4 µg/mL (≈ 0.724 µM) |
| CC(=O)N[C@@H](CCCCN)C(=O)N[C@@H](CCCCN)C(=O)N[C@@H](CCCNC(=N)N)C(=O)N[C@H](C(=O)N[C@@H](CCCCN)C(=O)N[C@@H](CCCCN)C(=O)N[C@@H](CCCNC(=N)N)C(=O)N[C@@]1(C)CCC/C=C\CCC[C@@](C)(C(=O)N[C@@H](CCCCN)C(=O)N[C@@]2(C)CCC/C=C\CCC[C@@](C)(C(=O)N[C@@H](CC(C)C)C(=O)N[C@@H](CCCCN)C(=O)N[C@@H](CCCCN)C(=O)N3CCC[C@H]3C(=O)N[C@H](C(=O)N[C@@H](CCCNC(=N)N)C(N)=O)C(C)C)NC(=O)[C@H](CCCNC(=N)N)NC(=O)[C@H](Cc3c[nH]c4ccccc34)NC(=O)[C@H](Cc3ccc(O)cc3)NC2=O)NC(=O)[C@H](CC(C)C)NC(=O)[C@H](CCCCN)NC(=O)[C@H](Cc2ccccc2)NC1=O)C(C)C (Ac-KKRVKKR[S5]FKL[S5]K[S5]YWR[S5]LKKPVR-NH2; staple (Z) 8-12, 14-18) | 2.6 µg/mL (≈ 0.805 µM) | 2.5 µg/mL (≈ 0.774 µM) | 56.3 µg/mL | 2.5 µg/mL (≈ 0.774 µM) | 2.4 µg/mL (≈ 0.743 µM) |
| CC(=O)N[C@@H](CCCCN)C(=O)N[C@@H](CCCCN)C(=O)N[C@@H](CCCNC(=N)N)C(=O)N[C@H](C(=O)N[C@@H](CCCCN)C(=O)N[C@@H](CCCCN)C(=O)N[C@@H](CCCNC(=N)N)C(=O)N[C@@]1(C)CCC/C=C\CCC[C@@](C)(C(=O)N[C@@H](CCCCN)C(=O)N[C@@]2(C)CCC/C=C\CCC[C@@](C)(C(=O)N[C@@H](CC(C)C)C(=O)N[C@@H](CCCCN)C(=O)N[C@@H](CCCCN)C(=O)N3CCC[C@H]3C(=O)N[C@H](C(=O)N[C@@H](CCCNC(=N)N[C@@H]3O[C@H](CO)[C@@H](O[C@H]4O[C@H](CO)[C@@H](O[C@H]5O[C@H](CO)[C@@H](O)[C@H](O)[C@H]5O)[C@H](O)[C@H]4O)[C@H](O)[C@H]3O)C(N)=O)C(C)C)NC(=O)[C@H](CCCNC(=N)N)NC(=O)[C@H](Cc3c[nH]c4ccccc34)NC(=O)[C@H](Cc3ccc(O)cc3)NC2=O)NC(=O)[C@H](CC(C)C)NC(=O)[C@H](CCCCN)NC(=O)[C@H](Cc2ccccc2)NC1=O)C(C)C (Ac-KKRVKKR[S5]FKL[S5]K[S5]YWR[S5]LKKPV[X1]-NH2; staple (Z) 8-12, 14-18) | 2.6 µg/mL (≈ 0.7 µM) | 1.1 µg/mL (≈ 0.296 µM) | 80.8 µg/mL | 1.1 µg/mL (≈ 0.296 µM) | 1.1 µg/mL (≈ 0.296 µM) |
| CC(=O)N[C@@H](CC(C)C)C(=O)N[C@@H](CCCCN)C(=O)N[C@@H](CCCNC(=N)N)C(=O)N[C@H](C(=O)N[C@@]1(C)CCC/C=C\CCC[C@@](C)(C(=O)N[C@@H](CCCCN)C(=O)N[C@@H](CC(C)C)C(=O)N[C@@H](CC(C)C)C(=O)N[C@@H](CCCCN)C(=O)N[C@@H](CCCNC(=N)N)C(=O)N[C@@H](Cc2ccc(O)cc2)C(=O)N[C@@H](Cc2c[nH]c3ccccc23)C(=O)N[C@@H](CCCNC(=N)N)C(=O)N[C@@H](CCC(N)=O)C(=O)N[C@@H](CC(C)C)C(=O)N[C@@H](CCCCN)C(=O)N[C@@H](CCCCN)C(=O)N2CCC[C@H]2C(=O)N[C@H](C(=O)N[C@@H](CCCNC(=N)N)C(N)=O)C(C)C)NC(=O)[C@H](C(C)C)NC(=O)[C@H](CCCNC(=N)N)NC(=O)[C@H](CCCCN)NC1=O)C(C)C (Ac-LKRV[S5]KRV[S5]KLLKRYWRQLKKPVR-NH2; staple (Z) 5-9) | 2.6 µg/mL (≈ 0.817 µM) | 38 µg/mL (≈ 11.9 µM) | – | 2.5 µg/mL (≈ 0.785 µM) | 37.7 µg/mL (≈ 11.8 µM) |
| CC(=O)N[C@@H](CC(C)C)C(=O)N[C@@H](CCCCN)C(=O)N[C@@H](CCCNC(=N)N)C(=O)N[C@]1(C)CCCCCC/C=C\CCC[C@@](C)(C(=O)N[C@@H](CC(C)C)C(=O)N[C@@H](CCCCN)C(=O)N[C@@H](CCCNC(=N)N)C(=O)N[C@@H](Cc2ccc(O)cc2)C(=O)N[C@@H](Cc2c[nH]c3ccccc23)C(=O)N[C@@H](CCCNC(=N)N)C(=O)N[C@@H](CCC(N)=O)C(=O)N[C@@H](CC(C)C)C(=O)N[C@@H](CCCCN)C(=O)N[C@@H](CCCCN)C(=O)N2CCC[C@H]2C(=O)N[C@H](C(=O)N[C@@H](CCCNC(=N)N)C(N)=O)C(C)C)NC(=O)[C@H](CCCCN)NC(=O)[C@H](Cc2ccccc2)NC(=O)[C@H](C(C)C)NC(=O)[C@H](CCCNC(=N)N)NC(=O)[C@H](CCCCN)NC(=O)[C@H](Cc2c[nH]c3ccccc23)NC1=O (Ac-LKR[R8]WKRVFK[S5]LKRYWRQLKKPVR-NH2; staple (Z) 4-11) | 5 µg/mL (≈ 1.49 µM) | 38 µg/mL (≈ 11.4 µM) | – | 4.9 µg/mL (≈ 1.46 µM) | 37.7 µg/mL (≈ 11.3 µM) |
| CC(=O)N[C@@H](CC(C)C)C(=O)N[C@@H](CCCCN)C(=O)N[C@@H](CCCNC(=N)N)C(=O)N[C@@]1(C)CCC/C=C\CCC[C@@](C)(C(=O)N[C@@H](Cc2ccccc2)C(=O)N[C@@H](CCCCN)C(=O)N[C@@H](CC(C)C)C(=O)N[C@@H](CC(C)C)C(=O)N[C@@H](CCCCN)C(=O)N[C@@H](CCCNC(=N)N)C(=O)N[C@@H](Cc2ccc(O)cc2)C(=O)N[C@@H](Cc2c[nH]c3ccccc23)C(=O)N[C@@H](CCCNC(=N)N)C(=O)N[C@@H](CCC(N)=O)C(=O)N[C@@H](CC(C)C)C(=O)N[C@@H](CCCCN)C(=O)N[C@@H](CCCCN)C(=O)N2CCC[C@H]2C(=O)N[C@H](C(=O)N[C@@H](CCCNC(=N)N)C(N)=O)C(C)C)NC(=O)[C@H](CCCNC(=N)N)NC(=O)[C@H](CCCCN)NC(=O)[C@H](Cc2c[nH]c3ccccc23)NC1=O (Ac-LKR[S5]WKR[S5]FKLLKRYWRQLKKPVR-NH2; staple (Z) 4-8) | 5 µg/mL (≈ 1.51 µM) | 38 µg/mL (≈ 11.4 µM) | – | 2.5 µg/mL (≈ 0.753 µM) | 37.7 µg/mL (≈ 11.4 µM) |
| CC(=O)N[C@@H](CC(C)C)C(=O)N[C@]1(C)CCCCCC/C=C\CCC[C@@](C)(C(=O)N[C@@H](CCCCN)C(=O)N[C@@H](CC(C)C)C(=O)N[C@@H](CC(C)C)C(=O)N[C@@H](CCCCN)C(=O)N[C@@H](CCCNC(=N)N)C(=O)N[C@@H](Cc2ccc(O)cc2)C(=O)N[C@@H](Cc2c[nH]c3ccccc23)C(=O)N[C@@H](CCCNC(=N)N)C(=O)N[C@@H](CCC(N)=O)C(=O)N[C@@H](CC(C)C)C(=O)N[C@@H](CCCCN)C(=O)N[C@@H](CCCCN)C(=O)N2CCC[C@H]2C(=O)N[C@H](C(=O)N[C@@H](CCCNC(=N)N)C(N)=O)C(C)C)NC(=O)[C@H](C(C)C)NC(=O)[C@H](CCCNC(=N)N)NC(=O)[C@H](CCCCN)NC(=O)[C@H](Cc2c[nH]c3ccccc23)NC(=O)[C@H](C(C)C)NC(=O)[C@H](CCCNC(=N)N)NC1=O (Ac-L[R8]RVWKRV[S5]KLLKRYWRQLKKPVR-NH2; staple (Z) 2-9) | 9.8 µg/mL (≈ 2.98 µM) | 38 µg/mL (≈ 11.6 µM) | – | 9.7 µg/mL (≈ 2.95 µM) | 37.7 µg/mL (≈ 11.5 µM) |
| CC(=O)N[C@]1(C)CCCCCC/C=C\CCC[C@@](C)(C(=O)N[C@@H](Cc2ccccc2)C(=O)N[C@@H](CCCCN)C(=O)N[C@@H](CC(C)C)C(=O)N[C@@H](CC(C)C)C(=O)N[C@@H](CCCCN)C(=O)N[C@@H](CCCNC(=N)N)C(=O)N[C@@H](Cc2ccc(O)cc2)C(=O)N[C@@H](Cc2c[nH]c3ccccc23)C(=O)N[C@@H](CCCNC(=N)N)C(=O)N[C@@H](CCC(N)=O)C(=O)N[C@@H](CC(C)C)C(=O)N[C@@H](CCCCN)C(=O)N[C@@H](CCCCN)C(=O)N2CCC[C@H]2C(=O)N[C@H](C(=O)N[C@@H](CCCNC(=N)N)C(N)=O)C(C)C)NC(=O)[C@H](CCCNC(=N)N)NC(=O)[C@H](CCCCN)NC(=O)[C@H](Cc2c[nH]c3ccccc23)NC(=O)[C@H](C(C)C)NC(=O)[C@H](CCCNC(=N)N)NC(=O)[C@H](CCCCN)NC1=O (Ac-[R8]KRVWKR[S5]FKLLKRYWRQLKKPVR-NH2; staple (Z) 1-8) | 9.8 µg/mL (≈ 2.93 µM) | 38 µg/mL (≈ 11.4 µM) | – | 4.9 µg/mL (≈ 1.46 µM) | 9.6 µg/mL (≈ 2.87 µM) |
| CC(=O)N[C@@]1(C)CCC/C=C\CCC[C@@](C)(C(=O)N[C@@H](CCCCN)C(=O)N[C@@H](CCCNC(=N)N)C(=O)N[C@H](C(=O)N[C@@H](Cc2ccccc2)C(=O)N[C@@H](CCCCN)C(=O)N[C@@H](CC(C)C)C(=O)N[C@@H](CC(C)C)C(=O)N[C@@H](CCCCN)C(=O)N[C@@H](CCCNC(=N)N)C(=O)N[C@@H](Cc2ccc(O)cc2)C(=O)N[C@@H](Cc2c[nH]c3ccccc23)C(=O)N[C@@H](CCCNC(=N)N)C(=O)N[C@@H](CCC(N)=O)C(=O)N[C@@H](CC(C)C)C(=O)N[C@@H](CCCCN)C(=O)N[C@@H](CCCCN)C(=O)N2CCC[C@H]2C(=O)N[C@H](C(=O)N[C@@H](CCCNC(=N)N)C(N)=O)C(C)C)C(C)C)NC(=O)[C@H](C(C)C)NC(=O)[C@H](CCCNC(=N)N)NC(=O)[C@H](CCCCN)NC1=O (Ac-[S5]KRV[S5]KRVFKLLKRYWRQLKKPVR-NH2; staple (Z) 1-5) | 2.6 µg/mL (≈ 0.808 µM) | 38 µg/mL (≈ 11.8 µM) | – | 2.5 µg/mL (≈ 0.777 µM) | 37.7 µg/mL (≈ 11.7 µM) |
